From patent US20240246954A1, “COMPOSITIONS AND METHODS FOR INHIBITING KRAS” (TheRas, Inc., priority 2021, published 2024) come the findings set out here.

The structures appear in SMILES notation.

The target of test [1] is T1, Avi-KRAS G12D/Q25A (1-169) GppNHp/3×FLAG-PI3KCA (157-299) (Homo sapiens, UniProt P01116, G12D/Q25A).
T1 construct: Avi-KRAS G12D/Q25A (1-169) GppNHp
The experiment in a line: HTRF PI3KCA-KRAS G12D/Q25A-GppNHp disruption assay. It counts as biochemical. Conditions: 1 h incubation. In a few lines: (§1)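 Compounds titrated from 100 μM in a 10-point series, incubated with protein mix 1 h at room temperature, then HTRF reagents a further 1 h. Time-resolved fluorescence read (excitation 320 nm, emission 615 nm); activity expressed as percentage of DMSO control.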
Background: In TR-FRET formats the signal depends on donor and acceptor labels being close together.

For test [2], the target named is T2, Avi-KRAS G12D (1-169) GppNHp/RAF1 RBD-3×FLAG (52-151) (Homo sapiens, UniProt P01116, G12D).
T2 construct: Avi-KRAS G12D (1-169) GppNHp
Description: HTRF Raf1-KRAS G12D-GppNHp disruption assay. It counts as biochemical. The following applies: 1 h incubation. The essentials:
as §1

The subject of test [3] is pERK in GP2d cells (KRAS G12D). Description: Cell-based pERK HTRF assay. The following applies: GP2d, 1 h, 60 min incubation. As for the experimental part: Biological Example 3. Cell-Based pERK HTRF Assay
pERK assay (Perkin Elmer) was used to determine the effectiveness of compounds in disrupting KRAS G12D protein/effector signaling in cells.
On Day 1, cells (GP2d) were seeded into 96-well plates at 3×10^4 cells/well in 80 μl complete growth media (DMEM, 10% FBS).
On Day 2, cells were treated with compounds at 0.25% DMSO. The source plate was created with compounds diluted in media at 5-fold the final assay concentration. The compounds were run in a 9-point concentration curve starting at 1 μM, with a half-log dilution between concentrations. 20 μL was transferred onto the cell plates (final volume in wells was 100 μL). Plates were harvested after 60 min incubation by aspirating media and adding kit-supplied 1× supplemented lysis buffer to all wells (50 μl per well). Plates were then placed on a plate shaker and incubated at 850 rpm for an additional 30 min.
Antibody mixture solution is prepared by diluting aliquoted d2 and Eu Cryptate antibodies 1:20 in kit supplied detection buffer, mix the diluted antibodies solutions (1:1 v:v). Four μL of this solution is then added to a 384-well detection plate (Perkin Elmer; 6008230).
Samples were homogenized by pipetting up and down and then transferred (16 μL of cell lysates) from the 96-well cell culture plate to two wells of the HTRF 384-well detection plate containing the antibody solution. Plates were centrifuged (524 g for 1 min) and allowed to incubate between 4 and 24 h at room temperature. Maximum signal is reached after 4 h incubation time and remains stable over a period of 24 hours. Therefore, readings can be made between 4 and 24 h of incubation. Plates were centrifuged again (524 g for 1 min), then analyzed on the EnVision plate reader using the following settings: Excitation 320 nm, Bandwidth 75 nm; Emission 615 nm, Bandwidth 85 nm; Gain 100%; Flashes 100; Lag 60 μs.

T1 sequence (P01116 1-169 isoform P01116-2 G12D/Q25A limits assumed): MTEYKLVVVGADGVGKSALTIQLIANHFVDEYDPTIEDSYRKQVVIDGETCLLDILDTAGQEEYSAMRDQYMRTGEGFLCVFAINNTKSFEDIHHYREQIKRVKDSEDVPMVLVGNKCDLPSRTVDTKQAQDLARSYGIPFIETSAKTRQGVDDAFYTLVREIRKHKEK
T2 sequence (P01116 1-169 isoform P01116-2 G12D limits assumed): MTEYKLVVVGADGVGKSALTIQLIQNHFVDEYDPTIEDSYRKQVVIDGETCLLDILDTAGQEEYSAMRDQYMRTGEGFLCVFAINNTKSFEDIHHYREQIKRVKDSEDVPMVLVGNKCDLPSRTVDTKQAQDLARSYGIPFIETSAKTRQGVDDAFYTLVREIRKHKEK

Take `Fc1c(-c2cc(C(F)F)cc3ccccc23)c(C(F)(F)F)cc2c(N3CC4CCC(C3)N4)nc(OCC34CCCN3CCC4)nc12` [Compound 331]: the half-maximal inhibitory concentration (IC50) (as a rule, the concentration that inhibits the measured activity by half) is 10 to 30 µM in test [1], 10 to 30 µM in test [2] and above 1 µM in test [3].

Consider `CN(c1nc(N2CC(N3CC4(CC4)C3)C2)nc2c(F)c(-c3ccc(F)c4sc(N)c(C#N)c34)c(C(F)(F)F)cc12)[C@@H]1CCNC1` [Compound 365], for which the IC50 in test [1], in test [2] and in test [3] was 0.1 to 1 µM each time.

Consider `Nc1nc2c(-c3c(C(F)(F)F)cc4c(N[C@H]5CCC[C@H](N)C5)nc(OCC56CCCN5CCC6)nc4c3F)ccc(F)c2s1` [Compound 328], for which the IC50 in test [1] is 1 to 10 µM; in test [2], 1 to 10 µM; in test [3], above 1 µM.

Consider `N#Cc1c(N)sc2c(F)ccc(-c3c(C(F)(F)F)cc4c(N5C[C@H]6CC[C@@H](C5)N6)nc(N5CC(N6CC7(CC7)C6)C5)nc4c3F)c12` [Compound 363, 4-(2-(3-(5-azaspiro[2.3]hexan-5-yl)azetidin-1-yl)-4-((1R,5S)-3,8-diazabicyclo[3.2.1]octan-3-yl)-8-fluoro-6-(trifluoromethyl)quinazolin-7-yl)-2-amino-7-fluorobenzo[b]thiophene-3-carbonitrile], for which the IC50 in test [1] is 0.1 to 1 µM; in test [2] it was 0.1 to 1 µM; in test [3], at most 0.1 µM.

On to `N#Cc1c(N)sc2c(F)ccc(-c3cc4nc(OC[C@@]56CCCN5C[C@H](F)C6)nc(N5CC6CCC(C5)N6)c4cc3C(F)(F)F)c12` [Compound 323, 4-(4-(3,8-diazabicyclo[3.2.1]octan-3-yl)-2-(((2R,7aS)-2-fluorotetrahydro-1H-pyrrolizin-7a(5H)-yl)methoxy)-6-(trifluoromethyl)quinazolin-7-yl)-2-amino-7-fluorobenzo[b]thiophene-3-carbonitrile], for which the concentration for half-maximal inhibition (IC50) was 0.1 to 1 µM in test [1], at most 0.1 µM in test [2] and at most 0.1 µM in test [3].

As to `CN1C[C@H](F)C[C@H]1COc1nc(N2C[C@H]3NCC[C@H]32)c2cc(C(F)(F)F)c(-c3ccc(F)c4sc(N)nc34)c(F)c2n1` [Compound 174], the IC50 in test [2] was 1 to 10 µM; in test [3], above 1 µM.

Turning to `Nc1nc2c(-c3c(C(F)(F)F)cc4c(NC5CC6CC[C@@H](C5)N6)nc(OCC56CCCN5CCC6)nc4c3F)ccc(F)c2s1` (stereo partly shown) [Compound 263], the IC50 in test [1] and in test [2] was 1 to 10 µM in each case.

In the case of `NC(=O)N1CCN(c2nc(OCC34CCCN3CCC4)nc3c(F)c(-c4ccc(F)c5sc(N)nc45)c(C(F)(F)F)cc23)CC1` [Compound 165, 4-(7-(2-amino-7-fluorobenzo[d]thiazol-4-yl)-8-fluoro-2-((tetrahydro-1H-pyrrolizin-7a(5H)-yl)methoxy)-6-(trifluoromethyl)quinazolin-4-yl)piperazine-1-carboxamide], the half-maximal inhibitory concentration (IC50) in test [1] and in test [2] was 10 to 30 µM each time.

For `Oc1cc(-c2c(Cl)cc3c(N4CC5CCC(C4)N5)nc(OCC45CCCN4CCC5)nc3c2F)c2ccccc2c1` [Compound 161], the IC50 in test [1] and in test [2] was 1 to 10 µM throughout.

Consider `CN(c1nc(OC[C@@H]2CCCN2CCF)nc2c(F)c(-c3ccc(F)c4sc(N)nc34)c(C(F)(F)F)cc12)C1CNC1` [Compound 166], for which the IC50 in test [1] and in test [2] was 10 to 30 µM each time.

With `CN1CCC[C@H]1COc1nc(N2C[C@@H]3[C@H]2CCN3C(=O)CN)c2cc(Cl)c(-c3cccc4nc(N)sc34)c(F)c2n1` [Compound 104], the IC50 in test [1] and in test [2] was 10 to 30 µM throughout.

With `CN1CCC[C@H]1COc1nc(N2C[C@H]3NCC[C@H]32)c2cc(Cl)c(-c3ccc(F)c4sc(N)nc34)c(F)c2n1` [Compound 95], the 50% inhibitory concentration (IC50) in test [1] and in test [2] was 10 to 30 µM throughout.

As for `CCN(c1nc(OC[C@@H]2CCCN2C)nc2c(F)c(-c3ccc(F)c4sc(N)nc34)c(C(F)(F)F)cc12)C1CNC1` [Compound 170], the IC50 in test [1] and in test [2] was 10 to 30 µM throughout.
